How the values were obtained:
human CB2 receptor [1] = target: T1, human CB2 receptor (Homo sapiens, UniProt P34972); assay: cell-based LANCE cAMP assay in CHO cells stably expressing CB2
[2] = test system: normal human mononuclear cells (PBMC); assay: cytotoxicity assay on human mononuclear cells; type: cell-based; conditions: 72 h, PBMC from healthy donors
human CB2 receptor [3] = target: T1, human CB2 receptor; assay: [3H]CP-55,940 radioligand competition binding assay, CB2; conditions: calculated as Ki(CB1)/Ki(CB2) ratio

T1 sequence (P34972 whole entry): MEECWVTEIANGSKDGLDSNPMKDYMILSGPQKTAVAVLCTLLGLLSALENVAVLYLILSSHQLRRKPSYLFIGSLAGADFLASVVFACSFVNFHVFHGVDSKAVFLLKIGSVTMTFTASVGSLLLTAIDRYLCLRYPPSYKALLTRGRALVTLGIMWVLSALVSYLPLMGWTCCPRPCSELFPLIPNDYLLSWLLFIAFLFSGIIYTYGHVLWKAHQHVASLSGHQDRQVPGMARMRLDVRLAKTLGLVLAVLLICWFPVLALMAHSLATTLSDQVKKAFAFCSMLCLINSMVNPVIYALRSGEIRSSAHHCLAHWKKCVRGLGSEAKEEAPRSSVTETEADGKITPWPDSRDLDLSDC

SMILES	functional activity at CB2 (human CB2 receptor [1])	also measured
CN(C)c1ccc(C(NC(=O)Cc2ccccc2)NC(=O)Cc2ccccc2)cc1 [Compound 9, N,N′-((4-(Dimethylamino)phenyl)methylene)bis(2-phenylacetamide)]	inverse agonists	
CC(C)c1ccc(C(NC(=O)Cc2ccccc2)NC(=O)Cc2ccccc2)cc1 [Compound 18, N,N′-((4-Isopropylphenyl)methylene)bis(2-phenylacetamide)]	CB2 inverse agonists	
CCN(CC)c1ccc(C(NC(=O)Cc2ccccc2)NC(=O)Cc2ccccc2)cc1 [Compound 26, N,N′-((4-(Diethylamino)phenyl)methylene)bis(2-phenylaceta-mide)]	CB2 inverse agonists	cytotoxic effects ([2]; 1 µM): did not show any cytotoxic effects; effects on cell viability ([2]; 10 µM): only slight effects on cell viability
CCCN(CCC)c1ccc(C(NC(=O)Cc2ccccc2)NC(=O)Cc2ccccc2)cc1 [Compound 27, N,N′-((4-(Dipropylamino)phenyl)methylene)bis(2-phenylaceta-mide)]	CB2 inverse agonists	
O=C(Cc1ccccc1)NC(NC(=O)Cc1ccccc1)c1ccc(N2CCCC2)cc1 [Compound 30, N,N′-((4-(Pyrrolidin-1-yl)phenyl)methylene)bis(2-phenylaceta-mide)]	CB2 inverse agonists	
O=C(Cc1ccc(Cl)cc1)NC(NC(=O)Cc1ccc(Cl)cc1)c1ccc(C(F)(F)F)cc1 [Compound 39, N,N′-((4-(Trifluoromethyl)phenyl)methylene)bis(2-(4-chlorophenyl)acetamide)]		SI: selectivity index for CB2 (human CB2 receptor [3]): >198
CCCCCC(=O)NC(NC(=O)CCCCC)c1ccc(N(CC)CC)cc1 [Compound 59, N,N′-((4-(Diethylamino)phenyl)methylene)dihexanamide]	CB2 inverse agonists	

From article PMC3967745 (Journal of medicinal chemistry, 2012)
